Test results from patent US12139492B2 (Endotarget Inc., priority 2021, dated 2024).

Columns and labels:
Mino cells = assay: Antiproliferative effect, MTS cell viability assay, Mino cells; format: cell-based; conditions: Homo sapiens, MINO, Mino mantle cell lymphoma cells; read-out: IC50 (anti-proliferation) Mino cells
Method in brief: (§1)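 Readout was MTS-derived formazan absorbance (490 nm) reflecting metabolically active cells. Treatment lasted 72 h over a 0–10 μM range (0.001, 0.01, 0.1, 1, 10 μM) in JeKo-1 and Mino B-cell malignancy cells.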

JeKo-1 cells = assay: Antiproliferative effect, MTS cell viability assay, JeKo-1 cells; format: cell-based; conditions: Homo sapiens; JeKo-1 mantle cell lymphoma cells; read-out: IC50 (anti-proliferation) JeKO-1 cells
Method in brief: as §1

BTK [1] = target: T1, BTK (Homo sapiens, UniProt Q06187); assay: BTK degradation, DC50 and Dmax of Table 1 (cell line not given); format: cell-based; set-up: endogenous in cells; conditions: for DC50: concentration giving 50% reduction of BTK expression level
BTK [2] = target: T1, BTK; assay: Degradation of BTK protein in Namalwa cells (Western blot; DC50, Dmax); conditions: Namalwa B lymphocyte cells, Western blot; for degradation of BTK protein: various concentrations, 24 hours

T1 sequence (Q06187 whole entry): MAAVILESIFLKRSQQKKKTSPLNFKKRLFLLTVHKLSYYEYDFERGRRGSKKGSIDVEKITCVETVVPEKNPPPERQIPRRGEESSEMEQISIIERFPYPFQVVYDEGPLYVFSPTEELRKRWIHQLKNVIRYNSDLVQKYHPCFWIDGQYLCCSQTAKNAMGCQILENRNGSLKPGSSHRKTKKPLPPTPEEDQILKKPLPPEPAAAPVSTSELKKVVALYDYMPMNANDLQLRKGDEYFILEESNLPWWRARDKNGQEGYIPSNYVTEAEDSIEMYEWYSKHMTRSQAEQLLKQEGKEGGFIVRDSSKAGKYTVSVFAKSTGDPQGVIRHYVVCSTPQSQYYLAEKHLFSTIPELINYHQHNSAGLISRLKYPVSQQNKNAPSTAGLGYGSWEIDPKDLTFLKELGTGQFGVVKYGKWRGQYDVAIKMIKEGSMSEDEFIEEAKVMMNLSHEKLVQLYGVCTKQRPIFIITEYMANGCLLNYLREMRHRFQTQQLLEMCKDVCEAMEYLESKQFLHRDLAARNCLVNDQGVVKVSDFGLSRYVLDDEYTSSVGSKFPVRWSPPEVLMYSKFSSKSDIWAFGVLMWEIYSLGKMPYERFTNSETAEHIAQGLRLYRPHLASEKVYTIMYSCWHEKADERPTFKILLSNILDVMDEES

Row | SMILES | IC50 (Mino cells) [µM] | IC50 (JeKo-1 cells) [µM] | Dmax (BTK [1]) [%] | DC50 (BTK [1]) [µM] | degradation of BTK protein at 10^−6 M (BTK [2]) | degradation of BTK protein (BTK [2])
1 | Nc1ncnc2c1c(-c1ccc(Oc3ccccc3)cc1)nn2[C@@H]1CCCN(CC2CCN(C(=O)N3CCN(c4ccc5c(c4)C(=O)N(C4CCC(=O)NC4=O)C5=O)CC3)CC2)C1 (stereo partly drawn) [Compound 25, 5-(4-(4-(((R)-3-(4-amino-3-(4-phenoxyphenyl)-1H-pyrazolo(3,4-d)pyrimidin-1-yl)piperidin-1-yl)methyl)piperidine-1-carbonyl)piperazin-1-yl)-2-(2,6-dioxopiperidin-3-yl)isoindoline-1,3-dione] | 1 to 10 | 1 to 10 | > 75 | > 0.05 | degradation | 
2 | Nc1ncnc2c1c(-c1ccc(Oc3ccccc3)cc1)nn2[C@@H]1CCCN(CC2CCN(C(=O)N3CCC(C4CCN(c5ccc6c(c5)C(=O)N(C5CCC(=O)NC5=O)C6=O)CC4)CC3)CC2)C1 (stereo partly drawn) [Compound 29, 5-(1′-(4-(((R)-3-(4-amino-3-(4-phenoxyphenyl)-1H-pyrazolo(3,4-d)pyrimidin-1-yl)piperidin-1-yl)methyl)piperidine-1-carbonyl)-(4,4′-bipiperidin)-1-yl)-2-(2,6-dioxopiperidin-3-yl)isoindoline-1,3-dione] | 1 to 10 | 1 to 10 | > 90 | > 0.05 | degradation | 
3 | Nc1ncnc2c1c(-c1ccc(Oc3ccccc3)cc1)nn2[C@@H]1CCCN(CC2CCN(C(=O)N3CCC(CN4CCN(c5ccc6c(c5)C(=O)N(C5CCC(=O)NC5=O)C6=O)CC4)CC3)CC2)C1 (stereo partly drawn) [Compound 31, 5-(4-((1-(4-(((R)-3-(4-amino-3-(4-phenoxyphenyl)-1H-pyrazolo(3,4-d)pyrimidin-1-yl)piperidin-1-yl)methyl)piperidine-1-carbonyl)piperidin-4-yl)methyl)piperazin-1-yl)-2-(2,6-dioxopiperidin-3-yl)isoindoline-1,3-dione] | 1 to 10 | 1 to 10 | > 90 | 0.01 to 0.05 | degradation | dose-dependent degradation
4 | Nc1ncnc2c1c(-c1ccc(Oc3ccccc3)cc1)nn2[C@@H]1CCCN(CC2CCN(C(=O)N3CCC(CCN4CCN(c5ccc6c(c5)C(=O)N(C5CCC(=O)NC5=O)C6=O)CC4)CC3)CC2)C1 (stereo partly drawn) [Compound 33, 5-(4-(2-(1-(4-(((R)-3-(4-amino-3-(4-phenoxyphenyl)-1H-pyrazolo(3,4-d)pyrimidin-1-yl)piperidin-1-yl)methyl)piperidine-1-carbonyl)piperidin-4-yl)ethyl)piperazin-1-yl)-2-(2,6-dioxopiperidin-3-yl)isoindoline-1,3-dione] | 1 to 10 | 1 to 10 | > 90 | > 0.05 | degradation | dose-dependent degradation
5 | Nc1ncnc2c1c(-c1ccc(Oc3ccccc3)cc1)nn2C1CCN(CC2CCN(C(=O)N3CCN(c4ccc5c(c4)C(=O)N(C4CCC(=O)NC4=O)C5=O)CC3)CC2)CC1 (stereo not shown) [Compound 35, 5-(4-(4-((4-(4-amino-3-(4-phenoxyphenyl)-1H-pyrazolo(3,4-d)pyrimidin-1-yl)piperidin-1-yl)methyl)piperidine-1-carbonyl)piperazin-1-yl)-2-(2,6-dioxopiperidin-3-yl)isoindoline-1,3-dione] | < 1 | 1 to 10 | > 90 | < 0.01 | degradation | dose-dependent degradation
6 | Nc1ncnc2c1c(-c1ccc(Oc3ccccc3)cc1)nn2C1CCN(CC2CCN(C(=O)N3CCC(N4CCN(c5ccc6c(c5)C(=O)N(C5CCC(=O)NC5=O)C6=O)CC4)CC3)CC2)CC1 (stereo not shown) [Compound 37, 5-(4-(1-(4-((4-(4-amino-3-(4-phenoxyphenyl)-1H-pyrazolo(3,4-d)pyrimidin-1-yl)piperidin-1-yl)methyl)piperidine-1-carbonyl)piperidin-4-yl)piperazin-1-yl)-2-(2,6-dioxopiperidin-3-yl)isoindoline-1,3-dione] | < 1 | 1 to 10 | > 90 | 0.01 to 0.05 | degradation | dose-dependent degradation
7 | Nc1ncnc2c1c(-c1ccc(Oc3ccccc3)cc1)nn2C1CCN(CC2CCN(C(=O)N3CCC(C4CCN(c5ccc6c(c5)C(=O)N(C5CCC(=O)NC5=O)C6=O)CC4)CC3)CC2)CC1 (stereo not shown) [Compound 39, 5-(1′-(4-((4-(4-amino-3-(4-phenoxyphenyl)-1H-pyrazolo(3,4-d)pyrimidin-1-yl)piperidin-1-yl)methyl)piperidine-1-carbonyl)-(4,4′-bipiperidin)-1-yl)-2-(2,6-dioxopiperidin-3-yl)isoindoline-1,3-dione] | 1 to 10 | > 10 | > 90 | > 0.05 | degradation | dose-dependent degradation
8 | Nc1ncnc2c1c(-c1ccc(Oc3ccccc3)cc1)nn2C1CCN(CC2CCN(C(=O)N3CCC(CN4CCN(c5ccc6c(c5)C(=O)N(C5CCC(=O)NC5=O)C6=O)CC4)CC3)CC2)CC1 (stereo not shown) [Compound 41, 5-(4-((1-(4-((4-(4-amino-3-(4-phenoxyphenyl)-1H-pyrazolo(3,4-d)pyrimidin-1-yl)piperidin-1-yl)methyl)piperidine-1-carbonyl)piperidin-4-yl)methyl)piperazin-1-yl)-2-(2,6-dioxopiperidin-3-yl)isoindoline-1,3-dione] | < 1 | 1 to 10 | > 90 | 0.01 to 0.05 | degradation | dose-dependent degradation
9 | Nc1ncnc2c1c(-c1ccc(Oc3ccccc3)cc1)nn2[C@@H]1CCCN(C2CCN(C(=O)N3CCN(CCCC4CCN(c5ccc6c(c5)C(=O)N(C5CCC(=O)NC5=O)C6=O)CC4)CC3)CC2)C1 (stereo partly drawn) [Compound 189, 5-(4-(3-(4-((R)-3-(4-amino-3-(4-phenoxyphenyl)-1H-pyrazolo[3,4-d]pyrimidin-1-yl)-[1,4′-bipiperidine]-1′-carbonyl)piperazin-1-yl)propyl)piperidin-1-yl)-2-(2,6-dioxopiperidin-3-yl)isoindoline-1,3-dione] | 1 to 10 | > 10 | > 75 | > 0.05 |  | 
10 | Nc1ncnc2c1c(-c1ccc(Oc3ccccc3)cc1)nn2[C@@H]1CCCN(C2CCN(C(=O)N3CCN(CCCC4CCN(c5ccc6c(c5)CN(C5CCC(=O)NC5=O)C6=O)CC4)CC3)CC2)C1 (stereo partly drawn) [Compound 190, 3-(5-(4-(3-(4-((R)-3-(4-amino-3-(4-phenoxyphenyl)-1H-pyrazolo[3,4-d]pyrimidin-1-yl)-[1,4′-bipiperidine]-1′-carbonyl)piperazin-1-yl)propyl)piperidin-1-yl)-1-oxoisoindolin-2-yl)piperidine-2,6-dione] | > 10 | > 10 | > 50 | > 0.05 |  | 
11 | Nc1ncnc2c1c(-c1ccc(Oc3ccccc3)cc1)nn2[C@@H]1CCCN(C2CCN(C(=O)N3CCN(CCCN4CCC(c5ccc6c(c5)C(=O)N(C5CCC(=O)NC5=O)C6=O)CC4)CC3)CC2)C1 (stereo partly drawn) [Compound 191, 5-(1-(3-(4-((R)-3-(4-amino-3-(4-phenoxyphenyl)-1H-pyrazolo[3,4-d]pyrimidin-1-yl)-[1,4′-bipiperidine]-1′-carbonyl)piperazin-1-yl)propyl)piperidin-4-yl)-2-(2,6-dioxopiperidin-3-yl)isoindoline-1,3-dione] | > 10 | > 10 | > 75 | 0.01 to 0.05 |  | 
12 | Nc1ncnc2c1c(-c1ccc(Oc3ccccc3)cc1)nn2[C@@H]1CCCN(C2CCN(C(=O)N3CCN(CCCN4CCC(c5ccc6c(c5)CN(C5CCC(=O)NC5=O)C6=O)CC4)CC3)CC2)C1 (stereo partly drawn) [Compound 192, 3-(5-(1-(3-(4-((R)-3-(4-amino-3-(4-phenoxyphenyl)-1H-pyrazolo[3,4-d]pyrimidin-1-yl)-[1,4′-bipiperidine]-1′-carbonyl)piperazin-1-yl)propyl)piperidin-4-yl)-1-oxoisoindolin-2-yl)piperidine-2,6-dione] | > 10 | > 10 | > 75 | 0.01 to 0.05 |  | 
13 | Nc1ncnc2c1c(-c1ccc(Oc3ccccc3)cc1)nn2[C@@H]1CCCN(C2CCN(C(=O)N3CCC(CCCN4CCN(c5ccc6c(c5)C(=O)N(C5CCC(=O)NC5=O)C6=O)CC4)CC3)CC2)C1 (stereo partly drawn) [Compound 193, 5-(4-(3-(1-((R)-3-(4-amino-3-(4-phenoxyphenyl)-1H-pyrazolo[3,4-d]pyrimidin-1-yl)-[1,4′-bipiperidine]-1′-carbonyl)piperidin-4-yl)propyl)piperazin-1-yl)-2-(2,6-dioxopiperidin-3-yl)isoindoline-1,3-dione] | 1 to 10 | > 10 | > 50 | 0.01 to 0.05 |  | 
14 | Nc1ncnc2c1c(-c1ccc(Oc3ccccc3)cc1)nn2[C@@H]1CCCN(C2CCN(C(=O)N3CCC(CCCN4CCN(c5ccc6c(c5)CN(C5CCC(=O)NC5=O)C6=O)CC4)CC3)CC2)C1 (stereo partly drawn) [Compound 194, 3-(5-(4-(3-(1-((R)-3-(4-amino-3-(4-phenoxyphenyl)-1H-pyrazolo[3,4-d]pyrimidin-1-yl)-[1,4′-bipiperidine]-1′-carbonyl)piperidin-4-yl)propyl)piperazin-1-yl)-1-oxoisoindolin-2-yl)piperidine-2,6-dione] | 1 to 10 | 1 to 10 | > 75 | 0.01 to 0.05 |  | 
